Data taken from patent publication US10933076B2, “Crocin-sorafenib combination therapy for liver cancer” (United Arab Emirates University, priority 2019, dated 2021).

Key:
Assay type in all cases: in vivo, male Wistar rats
[1] = system: intrinsic apoptotic pathway; experiment: Western blot of intrinsic apoptotic pathway proteins (Bax, Bcl-2, PARP, pro-caspase-3, pro-caspase-9) in livers of DEN-induced HCC rats
Experimental: (§1) In this study, 4 weeks old male Wistar rats were used. The rats were randomly divided into two groups; Control group (n=8) which received 1× PBS via intraperitoneal (i.p.) injection; Experimental group which were injected with DEN at 50 mg/kg b. wt. (Sigma Aldrich, USA) dissolved in PBS once a week for 16 weeks via i.p. This HCC induction protocol was modified from the protocol described by (DePeralta et al., 2016; Schiffer et al., 2005).
(§2) All drugs were orally administered with intragastric (gavage) tube. Doses and route of administration followed what was been previously reported in the literature.
(§3) For the HCC+sorafenib group, sorafenib (Carbosynth Limited) was administered at a dose of 10 mg/kg b.wt. […] A 0.3% solution of DMSO was used to dissolve the sorafenib. […] At the end of the experimental period and after a 24-hour post last drug administration, animals were euthanized using Diethyl ether and sacrificed and dissected under controlled conditions. Blood and liver tissue samples were collected and stored either at room temperature in buffered formalin for histological analysis or at −80 C in PBS for biochemical and immunoblotting analyses.
Liver tissue samples (10 mg) were homogenized in cold RIPA buffer (Sigma Aldrich, USA) 2 μl of protease inhibitor and of phosphatases inhibitor were added to the homogenizing buffer (Sigma Aldrich, USA). Protein concentration of each liver sample was determined using the Bradford method (Bio-Rad, Hercules, Calif.) with the Promega GloMax Discover. In order to blot the proteins into the gel, 2-mercaptoethanol, […], was added to the cell lysate produced from the homogenization of liver tissues. The mixture of the lysate and loading dye was then loaded into the SDS-PAGE gel. Variations of gel percentages were used according to the size of protein to be determined. Following the separation of the protein content of each sample on the SDS-PAGE gel, proteins were transferred onto a PVDF membrane and blocked in 5% BSA in TBST or a 5% (w/v) non-fat milk at room temperature for one hour. After the blocking stage, the membranes were incubated with primary anti-body overnight at 4° C. In this study, the primary antibodies selected here were anti-Proliferating Cell Nuclear Antigen (PCNA), anti-caspase-3 (Cell Signaling Technology Inc.), anti-caspase-9 (Nous Biologicals), anti-PolyADP-ribose Polymerase (PARP), anti-Bcl-2, anti-Bax (Santa Cruz). Following the overnight incubation with primary antibodies, the membranes were extensively washed with TBST and re-probed with secondary antibodies including anti-rabbit IgG (Cell Signaling Technology, Inc, MA, USA) and anti-mouse IgG, and conjugated horseradish peroxidase for 1 hour at room temperature. Protein bands were then detected using a chemiluminescence solution known as WesternSure PREMIUM, the signal was detected and visualized using the Bio-Rad ChemiDoc XRS+ System. The intensity of the band was measured using the ImageJ software. The internal control used was total protein which was stained using the SYPRO Ruby protein gel stain following the protocol instructed by the manufacturer (Thermo Fisher Scientific).
Housekeeping proteins are used as the controls for every western blot analysis. Because of their stable expression in tissues, they are great indicators to validate the integrity of the protein samples loaded into the SDS-PAGE gel, therefore accurately reflecting the amount of proteins in the samples. Current research has investigated the ability of these housekeeping proteins to remain stable under different experimental conditions. […] Therefore, an alternative approach was used to resolve this issue. Total protein was utilized as the loading control; this protocol measures the whole protein content of a sample rather than relying on one protein.

[2] = system: DEN-induced HCC; experiment: Histopathological evaluation of liver (H&E) in DEN-induced HCC rats; conditions: HCC groups (FIG. 10)
Experimental: as §1, §2, §3

[3] = system: PCNA; experiment: Western blot of PCNA in livers of DEN-induced HCC rats; conditions: liver, versus HCC; P<0.01 (FIG. 6)
Experimental: as §1, §2
For the HCC+sorafenib group, sorafenib (Carbosynth Limited) was administered at a dose of 10 mg/kg b.wt. […]
Liver tissue samples (10 mg) were homogenized in cold RIPA buffer (Sigma Aldrich, USA) 2 μl of protease inhibitor and of phosphatases inhibitor were added to the homogenizing buffer (Sigma Aldrich, USA). Protein concentration of each liver sample was determined using the Bradford method (Bio-Rad, Hercules, Calif.) with the Promega GloMax Discover. […] Variations of gel percentages were used according to the size of protein to be determined. […] Protein bands were then detected using a chemiluminescence solution known as WesternSure PREMIUM, the signal was detected and visualized using the Bio-Rad ChemiDoc XRS+ System. The intensity of the band was measured using the ImageJ software. […]

[4] = system: DEN-induced HCC; experiment: Liver enzymes (ALT, AST) in serum of DEN-induced HCC rats, colorimetric assay
Experimental: as §1, §2, §3

[5] = system: DEN-induced HCC; experiment: Macroscopic appearance of liver and number of lesions/nodules in DEN-induced HCC rats
Experimental: as §1, §2, §3

[6] = system: reticulin network; experiment: Reticulin staining of liver sections in DEN-induced HCC rats; conditions: in comparison to HCC groups (FIG. 5)
Experimental: as §1, §2, §3

[7] = liver, compared to the HCC group alone, P<0.01 (FIG. 8)
[8] = liver, compared to the HCC group, P<0.05 (FIG. 9)

CC(/C=C/C=C(\C)C(=O)O[C@@H]1O[C@H](CO[C@@H]2O[C@H](CO)[C@@H](O)[C@H](O)[C@H]2O)[C@@H](O)[C@H](O)[C@H]1O)=C\C=C\C=C(C)\C=C\C=C(/C)C(=O)O[C@@H]1O[C@H](CO[C@@H]2O[C@H](CO)[C@@H](O)[C@H](O)[C@H]2O)[C@@H](O)[C@H](O)[C@H]1O [crocin, Crocetin di-gentiobiose ester]
expression of PARP ([1]; liver, compared to the HCC group alone, P<0.001 (FIG. 8)): decreased | expression of pro-caspase-3 [1, 7]: decreased | expression of pro-caspase-9 [1, 7]: decreased | expression of anti-apoptotic protein Bcl-2 [1, 8]: significantly (P<0.05) decreased | expression of pro-apoptotic protein Bax [1, 8]: increasing the expression | activation of the intrinsic apoptotic pathway ([1]; western blot analysis (FIGS. 7, 8, 9)): triggered the activation of the intrinsic apoptotic pathway | architecture of the liver (H&E histology) [2]: restored to a great degree the normal architecture of the liver | expression of PCNA [3]: significantly lowered the expression of PCNA | levels of ALT and AST in the blood ([4]; in comparison to DEN-induced HCC rats (FIG. 11)): great impact on lowering the levels of both ALT and AST | level of ALT in serum ([4]; in comparison to the HCC group, crocin 200 mg/kg b.wt., sorafenib 10 mg/kg b.wt., oral gavage 5 times a week, week 17 to 19, P<0.01): decrease in the level of ALT | level of ALT in serum ([4]; in comparison to the sorafenib alone group (HCC+sorafenib), P<0.05): significantly decreased levels of ALT | number of liver lesions ([5]; in comparison to the HCC animals (FIG. 4)): reduced the number of lesions | number of liver lesions ([5]; in comparison to the livers of sorafenib alone (HCC+SB) (FIG. 4)): significantly lower numbers of lesions | reticulin network / fiber breakage [6]: recovered the damage done by the DEN-induction of cancer
